{"source": "patent US20240287080A1", "about": "(IDEAYA Biosciences Inc., priority 2021, published 2024)"}
{"target": "T1, Pol theta (1-899) (Homo sapiens, UniProt O75417)", "T1 construct": "Pol theta (1-899) (5 nM) in assay buffer", "T1 sequence (O75417 1-899)": "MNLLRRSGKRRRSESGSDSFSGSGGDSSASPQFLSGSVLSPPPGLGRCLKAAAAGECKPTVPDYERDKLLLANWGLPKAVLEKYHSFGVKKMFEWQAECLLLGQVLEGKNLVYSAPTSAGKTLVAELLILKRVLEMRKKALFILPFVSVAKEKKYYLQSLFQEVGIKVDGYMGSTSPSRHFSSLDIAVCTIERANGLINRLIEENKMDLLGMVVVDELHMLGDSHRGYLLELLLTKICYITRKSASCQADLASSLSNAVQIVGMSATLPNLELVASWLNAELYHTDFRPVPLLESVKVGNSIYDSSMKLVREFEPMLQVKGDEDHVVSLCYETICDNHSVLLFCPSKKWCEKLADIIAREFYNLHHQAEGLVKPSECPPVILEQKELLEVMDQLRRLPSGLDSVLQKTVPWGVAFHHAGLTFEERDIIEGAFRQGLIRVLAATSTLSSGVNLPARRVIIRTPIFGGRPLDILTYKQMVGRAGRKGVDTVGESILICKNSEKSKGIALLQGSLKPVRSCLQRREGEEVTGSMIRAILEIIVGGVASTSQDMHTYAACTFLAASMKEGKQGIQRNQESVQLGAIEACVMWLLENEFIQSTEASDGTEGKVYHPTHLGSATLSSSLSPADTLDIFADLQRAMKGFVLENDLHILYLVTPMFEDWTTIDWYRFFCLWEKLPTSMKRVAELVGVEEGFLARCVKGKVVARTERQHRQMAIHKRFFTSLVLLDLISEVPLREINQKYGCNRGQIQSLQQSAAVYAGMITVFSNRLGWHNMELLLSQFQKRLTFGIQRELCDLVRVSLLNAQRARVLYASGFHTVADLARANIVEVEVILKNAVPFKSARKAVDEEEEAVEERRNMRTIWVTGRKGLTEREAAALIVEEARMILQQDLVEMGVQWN", "assay": "Pol theta ATPase activity, NADH oxidation-coupled enzymatic assay (ATPase NADH coupling: Standard Screening: hPolQ)", "format": "biochemical", "settings": "Pol theta (1-899) 5 nM, NADH oxidation-coupled ATPase assay; compounds of Table 3", "method_in_brief": "(§1)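 Rates of ATP hydrolysis taken from 60-min A340 traces of NADH oxidation via PK/LDH coupling, then fit four-parameter for IC50, Hill slope and max inhibition. Enzyme (5 nM, 1-899) and compounds preincubated 15 min before ATP 100 μM and 50-thymine ssDNA 300 nM (stock, equal volume added).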", "units": {"IC50": "nM"}}
{"smiles": "COc1cnc(C)c(F)c1-c1cc(C)ncc1C(=O)Nc1nnc(O[C@H]2CC[C@@H](CO)CC2)s1", "note": "[Example 257, 3′-fluoro-N-(5-(((1s,4s)-4-(hydroxymethyl)cyclohexyl)oxy)-1,3,4-thiadiazol-2-yl)-5′-methoxy-2′,6-dimethyl-[4,4′-bipyridine]-3-carboxamide]", "IC50": "≤ 200"}
{"smiles": "COc1cc(C)cc(-c2cc(C)ncc2C(=O)Nc2nnc(OC)s2)c1", "note": "[Example 422, N-(5-methoxy-1,3,4-thiadiazol-2-yl)-4-(3-methoxy-5-methylphenyl)-6-methylpyridine-3-carboxamide]", "IC50": "500 to 1000"}
{"smiles": "COc1nnc(NC(=O)c2cnc(C)cc2-c2ccc3c(c2)CC(=O)N3)s1", "note": "[Example 347, N-(5-methoxy-1,3,4-thiadiazol-2-yl)-6-methyl-4-(2-oxo-2,3-dihydro-1H-indol-5-yl)pyridine-3-carboxamide]", "IC50": "1000 to 10000"}
{"smiles": "COc1nnc(NC(=O)c2cc(N3CCC3)ncc2-c2cc(Cl)ncc2OC)s1", "note": "[Example 323, 6-(azetidin-1-yl)-2′-chloro-5′-methoxy-N-(5-methoxy-1,3,4-thiadiazol-2-yl)-[3,4′-bipyridine]-4-carboxamide]", "IC50": "≤ 200"}
{"smiles": "COc1nnc(NC(=O)c2cnc(C)cc2-c2cc(C)c([S@@+](C)[O-])cc2OC)s1", "note": "(single isomer, unassigned) [Example 308]", "IC50": "1000 to 10000"}
{"smiles": "COc1nnc(NC(=O)c2cnc(C)cc2-c2ccc(P(C)(C)=O)cc2OC)s1", "note": "[Example 303, 4-(4-(dimethylphosphoryl)-2-methoxyphenyl)-N-(5-methoxy-1,3,4-thiadiazol-2-yl)-6-methylnicotinamide]", "IC50": "1000 to 10000"}
{"smiles": "COc1cnc(Cl)cc1-c1cc(C)ncc1C(=O)Nc1nnc(O[C@@H]2C[C@@H]3C[C@H]2C[C@H]3O)s1", "note": "(single isomer, unassigned) [Example 263]", "IC50": "≤ 200"}
{"smiles": "COc1cnc(C)c(F)c1-c1cc(C)ncc1C(=O)Nc1nnc(OCCN(C)CC(F)(F)F)s1", "note": "[Example 258, 3′-fluoro-5′-methoxy-2′,6-dimethyl-N-(5-(2-(methyl(2,2,2-trifluoroethyl)amino)ethoxy)-1,3,4-thiadiazol-2-yl)-[4,4′-bipyridine]-3-carboxamide]", "IC50": "≤ 200"}
{"smiles": "COc1nnc(NC(=O)c2cnc(C)cc2-c2ccnc(C)c2)s1", "note": "[Example 404, N-(5-methoxy-1,3,4-thiadiazol-2-yl)-2′,6-dimethyl-[4,4′-bipyridine]-3-carboxamide]", "IC50": "1000 to 10000"}
{"smiles": "COc1nnc(NC(=O)c2ccc(N)cc2-c2cc(Cl)ncc2OC)s1", "note": "[Example 286, 4-amino-2-(2-chloro-5-methoxypyridin-4-yl)-N-(5-methoxy-1,3,4-thiadiazol-2-yl)benzamide]", "IC50": "≤ 200"}
{"smiles": "COc1nnc(NC(=O)c2cnc(C)cc2-c2cnc(C#N)cc2C)s1", "note": "[Example 413, 6-cyano-N-(5-methoxy-1,3,4-thiadiazol-2-yl)-4,6′-dimethyl-[3,4′-bipyridine]-3′-carboxamide]", "IC50": "1000 to 10000"}
{"smiles": "COc1nnc(NC(=O)c2cnc(C)cc2-c2ccc3c(c2)CCN(C)C3)s1", "note": "[Example 432, N-(5-methoxy-1,3,4-thiadiazol-2-yl)-6-methyl-4-(2-methyl-1,2,3,4-tetrahydroisoquinolin-6-yl)nicotinamide]", "IC50": "1000 to 10000"}
{"smiles": "CC[S@@+]([O-])c1cc(OC)c(-c2cc(C)ncc2C(=O)Nc2nnc(OC)s2)cc1Cl", "note": "(single isomer, unassigned) [Example 313]", "IC50": "≤ 200"}
{"smiles": "COc1nnc(NC(=O)c2cnc(C)cc2-c2cc(C)nn2C)s1", "note": "[Example 420, 4-(1,3-dimethyl-1H-pyrazol-5-yl)-N-(5-methoxy-1,3,4-thiadiazol-2-yl)-6-methylpyridine-3-carboxamide]", "IC50": "1000 to 10000"}
{"smiles": "COc1nnc(NC(=O)c2cnc(C)cc2-c2ccc(C(=O)O)cc2)s1", "note": "[Example 366, 4-(5-((5-methoxy-1,3,4-thiadiazol-2-yl)carbamoyl)-2-methylpyridin-4-yl)benzoic acid]", "IC50": "1000 to 10000"}
{"smiles": "COc1cnc(Br)cc1-c1cc(C)ncc1C(=O)Nc1nnc(O[C@H]2CCC[C@@H](O)C2)s1", "note": "(single isomer, unassigned) [Example 244]", "IC50": "≤ 200"}
{"smiles": "COc1cnc(Cl)cc1-c1cc(C)ncc1C(=O)Nc1nnc(O[C@H]2CO[C@H]3[C@@H]2OC[C@H]3O[N+](=O)[O-])s1", "note": "[Example 238, (3R,3aS,6S,6aR)-6-((5-(2′-chloro-5′-methoxy-6-methyl-[4,4′-bipyridine]-3-carboxamido)-1,3,4-thiadiazol-2-yl)oxy)hexahydrofuro[3,2-b]furan-3-yl nitrate]", "IC50": "≤ 200"}
{"smiles": "COc1nnc(NC(=O)c2cnc(C)cc2-c2ccc(C(N)=O)cc2)s1", "note": "[Example 353, 4-(4-carbamoylphenyl)-N-(5-methoxy-1,3,4-thiadiazol-2-yl)-6-methylpyridine-3-carboxamide]", "IC50": "1000 to 10000"}
{"smiles": "COc1nnc(NC(=O)c2cnc(C)cc2-c2ccc(OC(C)C)c(C#N)c2)s1", "note": "[Example 473, 4-[3-cyano-4-(propan-2-yloxy)phenyl]-N-(5-methoxy-1,3,4-thiadiazol-2-yl)-6-methylpyridine-3-carboxamide]", "IC50": "≤ 200"}
{"smiles": "COc1cnc(C)cc1-c1cc(C)ncc1C(=O)Nc1nnc(O[C@H]2COC[C@@H]2OC(C)C)s1", "note": "[Example 246]", "IC50": "≤ 200"}
{"smiles": "COc1nnc(NC(=O)c2cnc(C)cc2-c2cccc(C(N)=O)c2)s1", "note": "[Example 488, 4-(3-carbamoylphenyl)-N-(5-methoxy-1,3,4-thiadiazol-2-yl)-6-methylnicotinamide]", "IC50": "1000 to 10000"}
{"target": "T1, Pol theta (1-899)", "assay": "Pol theta ATPase activity, NADH oxidation-coupled enzymatic assay (ATPase NADH coupling: Standard Screening: hPolQ)", "format": "biochemical", "settings": "Table 4; Pol theta (1-899) 5 nM, ATP, dT50 ssDNA", "method_in_brief": "as §1", "units": {"IC50": "nM"}}
{"smiles": "COc1nnc(NC(=O)c2cnc(C)cc2-c2cc(N)ncc2OC)s1", "note": "[Example 73, 2′-amino-5′-methoxy-N-(5-methoxy-1,3,4-thiadiazol-2-yl)-6-methyl-(4,4′-bipyridine)-3-carboxamide]", "IC50": "500 to 1000"}
{"smiles": "COc1nnc(NC(=O)c2cnc(C)cc2-c2c(Cl)cccc2OC)s1", "note": "[Example 35, 4-(2-chloro-6-methoxyphenyl)-N-(5-methoxy-1,3,4-thiadiazol-2-yl)-6-methylnicotinamide]", "IC50": "200 to 500"}
{"smiles": "COc1cnc(Cl)cc1-c1cc(C)ncc1C(=O)Nc1nnc(OC2CCCC2)s1", "note": "[Example 17, 2′-chloro-N-(5-(cyclopentyloxy)-1,3,4-thiadiazol-2-yl)-5′-methoxy-6-methyl-(4,4′-bipyridine)-3-carboxamide]", "IC50": "≤ 200"}
{"smiles": "COc1nnc(NC(=O)c2cnc(C)cc2-c2cc(C)nnc2OC)s1", "note": "[Example 43, N-(5-methoxy-1,3,4-thiadiazol-2-yl)-4-(3-methoxy-6-methylpyridazin-4-yl)-6-methylnicotinamide]", "IC50": "200 to 500"}
{"smiles": "COc1cnc(Cl)cc1-c1cc(C)ncc1C(=O)Nc1nnc(OC2CCS(=O)(=O)CC2)s1", "note": "[Example 25, 2′-chloro-N-(5-((1,1-dioxidotetrahydro-2H-thiopyran-4-yl)oxy)-1,3,4-thiadiazol-2-yl)-5′-methoxy-6-methyl-(4,4′-bipyridine)-3-carboxamide]", "IC50": "≤ 200"}
{"target": "T1, Pol theta (1-899)", "assay": "Pol theta ATPase activity, NADH oxidation-coupled enzymatic assay (ATPase NADH coupling: Standard Screening: hPolQ)", "format": "biochemical", "settings": "Table 5; Pol theta (1-899) 5 nM, ATP, dT50 ssDNA", "method_in_brief": "as §1", "units": {"IC50": "nM"}}
{"smiles": "COc1cnc(Cl)cc1-c1cc(C)ncc1C(=O)Nc1nnc(O[C@@H]2COC(C)(C)C2)s1", "note": "(single isomer, unassigned) [Example 130]", "IC50": "≤ 200"}
{"smiles": "COc1cnc(Br)cc1-c1cc(C)ncc1C(=O)Nc1nnc(O[C@H]2CC[C@](C)(O)CC2)s1", "note": "(single isomer, unassigned) [Example 225, 2′-bromo-N-(5-(((1r,4r)-4-hydroxy-4-methylcyclohexyl)oxy)-1,3,4-thiadiazol-2-yl)-5′-methoxy-6-methyl-(4,4′-bipyridine)-3-carboxamide]", "IC50": "≤ 200"}
{"smiles": "COc1cnc(Br)c(F)c1-c1cc(C)ncc1C(=O)Nc1nnc(O[C@@H]2CCOC2)s1", "note": "[Example 201, 2′-bromo-3′-fluoro-5′-methoxy-6-methyl-N-(5-(((R)-tetrahydrofuran-3-yl)oxy)-1,3,4-thiadiazol-2-yl)-(4,4′-bipyridine)-3-carboxamide]", "IC50": "≤ 200"}
{"smiles": "COc1nnc(NC(=O)c2cn3c(C)ncc3cc2-c2cc(Cl)ncc2OC)s1", "note": "[Example 103, 7-(2-chloro-5-methoxypyridin-4-yl)-N-(5-methoxy-1,3,4-thiadiazol-2-yl)-3-methylimidazo(1,5-a)pyridine-6-carboxamide]", "IC50": "≤ 200"}
{"smiles": "COc1cnc(Cl)c(F)c1-c1cc(C)ncc1C(=O)Nc1nnc(O[C@@H]2CCO[C@H]2C)s1", "note": "(single isomer, unassigned) [Example 167]", "IC50": "≤ 200"}
{"smiles": "COc1cnc(Cl)cc1-c1cc(C)ncc1C(=O)Nc1nnc(O[C@H]2COCC2(F)F)s1", "note": "(single isomer, unassigned) [Example 128]", "IC50": "≤ 200"}
{"smiles": "COc1cnc(Cl)cc1-c1cc(C)ncc1C(=O)Nc1nnc(O[C@H]2CC[C@H](OC)CC2)s1", "note": "(single isomer, unassigned) [Example 125, 2′-chloro-5′-methoxy-N-(5-(((1r,4r)-4-methoxycyclohexyl)oxy)-1,3,4-thiadiazol-2-yl)-6-methyl-(4,4′-bipyridine)-3-carboxamide]", "IC50": "≤ 200"}
{"smiles": "COCc1cc(-c2cc(Cl)ncc2OC)c(C(=O)Nc2nnc(OC)s2)cn1", "note": "[Example 158, 2′-chloro-5′-methoxy-N-(5-methoxy-1,3,4-thiadiazol-2-yl)-6-(methoxymethyl)-(4,4′-bipyridine)-3-carboxamide]", "IC50": "≤ 200"}
{"smiles": "COc1cnc(Cl)cc1-c1cc(C)ncc1C(=O)Nc1nnc(O[C@H]2CCC[C@H](OC)C2)s1", "note": "(single isomer, unassigned) [Example 147]", "IC50": "≤ 200"}
{"smiles": "COc1cnc(Cl)cc1-c1cc(C)ncc1C(=O)Nc1nnc(O[C@H]2CCC[C@@H](O)C2)s1", "note": "(single isomer, unassigned) [Example 159]", "IC50": "≤ 200"}
{"smiles": "COc1cnc(Cl)c(F)c1-c1cc(C)ncc1C(=O)Nc1nnc(O[C@H]2CC[C@H](O)C2)s1", "note": "(single isomer, unassigned) [Example 197]", "IC50": "≤ 200"}
{"smiles": "COc1cnc(Cl)cc1-c1cc(C)ncc1C(=O)Nc1nnc(O[C@]2(C)CCOC2)s1", "note": "(single isomer, unassigned) [Example 139]", "IC50": "200 to 500"}
{"smiles": "COc1cnc(Cl)cc1-c1cc(C)ncc1C(=O)Nc1nnc(O[C@@H]2COC3(CC3)C2)s1", "note": "(single isomer, unassigned) [Example 228]", "IC50": "≤ 200"}
